# Source: patent US10563267B2, “Polymorphism biomarkers predict clinical outcomes of cancer patients receiving regorafenib” (University of Southern California, priority 2016, dated 2020)
# Assays:
# cancer patients [1] = assay: Clinical outcome (OS, PFS, tumor response) of cancer patients treated with regorafenib, by SNP genotype; type: in vivo, human
# Method: Further, single nucleotide polymorphisms (SNPs) of genes involved in various angiogenic pathways were evaluated for their ability to predict clinical outcomes for cancer patient treated with a therapy comprising regorafenib or an equivalent thereof.
# Still further, combinations of single nucleotide polymorphisms (SNPs) of genes involved in various angiogenic pathways were evaluated for their ability to predict clinical outcomes for cancer patient treated with a therapy comprising regorafenib or an equivalent thereof.
# Genomic DNA was obtained from cancer patients in therapies comprising regorafenib or an equivalent thereof and analyzed by using PCR-based direct sequencing. Multiple functional SNPs in 11 genes (NOTCH1, IL8, CCL5, DLL4, PLGF, ANG2, TIE1, PDGFRB, VEGFR2, EGFC and VEGFA) were tested.
# PCR and product sequencing were done using standard procedures. Uni- and multivariate analyses, adjusting for age, gender, rash and racial background, were carried out.
# cancer patients [2] = assay: Hand foot skin reaction (HFSR) in cancer patients receiving regorafenib, by ethnicity; type: in vivo, human
# Method: HFSR of grade 3-4 are among the most common grade 3-4 […] reactions associated with a therapy with regorafenib or an equivalent thereof. In this example, single nucleotide polymorphisms (SNPs) of CCL5 were evaluated for their ability to predict the likelihood for a patient to experience HFSR from a therapy comprising an effective amount of regorafenib or an equivalent thereof.
# Genomic DNA was obtained from more than 200 cancer patients receiving regorafenib and analyzed by using PCR-based direct sequencing. SNPs in CCL5 were tested to discover that the rarity (<1%) of the genotype of (G/G) for the rs2280789 polymorphism and/or the rs3817655 polymorphism (the genotype of (G/G) for the rs2280789 polymorphism and/or the rs3817655 are seen in 10% in Asian (Japanese) and 1% in Caucasian (Italian)) relates to the significant ethnic difference in severe HFSR developed by Caucasian patients compared to Japanese patients (grade 3 HFSR 16% vs 33.8% respectively, p=0.003).
# [3] = VEGFR2 rs2071559 A/Variant + NOTCH1 rs3125001 C/C + ANG2 rs2916702 A/Variant carriers
# [4] = VEGFR2 rs2071559 A/Variant + NOTCH1 rs3125001 C/C + ANG2 rs2916702 G/G carriers
# [5] = VEGFR2 rs2071559 A/Variant + NOTCH1 rs3125001 T/Variant carriers
# [6] = VEGFR2 rs2071559 A/variant carriers (N=111)
structure (smiles),measurement,setting,value
CNC(=O)c1cc(Oc2ccc(NC(=O)Nc3ccc(Cl)c(C(F)(F)F)c3)c(F)c2)ccn1 [regorafenib],HR for OS,"cancer patients [1]; TIE1 A/A + Plgf C/C vs TIE1 G/Variant carriers (HR reference), multivariate",0.22
same,HR for OS,"cancer patients [1]; TIE1 A/A + Plgf T/Variant vs TIE1 G/Variant carriers (HR reference), multivariate",0.79
same,median OS,cancer patients [1]; TIE1 rs7527092 A/A (N=41),4.7 months
same,median OS,cancer patients [1]; TIE1 rs7527092 A/A + Plgf rs2268614 C/C carriers (N=9),2.6 months
same,median OS,cancer patients [1]; TIE1 rs7527092 A/A + Plgf rs2268614 T/Variant carriers (N=32),5.8 months
same,HR for OS,"cancer patients [1]; TIE1 rs7527092 A/A vs G/variant carriers, multivariate, p=0.0063",1.72
same,HR for OS,"cancer patients [1]; TIE1 rs7527092 A/A vs G/variant carriers, univariate, p=0.0303",1.49
same,median OS,cancer patients [1]; TIE1 rs7527092 G/Variant carriers (N=109),7.8 months
same,median OS,cancer patients [1]; TIE1 rs7527092 G/variant carriers (N=106),7.8 months
same,patients non-responsive (tumor response),cancer patients [1]; [3],7
same,patients responsive (tumor response),cancer patients [1]; [3],16
same,patients non-responsive (tumor response),cancer patients [1]; [4],6
same,patients responsive (tumor response),cancer patients [1]; [4],2
same,patients non-responsive (tumor response),cancer patients [1]; [5],49
same,patients responsive (tumor response),cancer patients [1]; [5],25
same,median OS,cancer patients [1]; [6],7.0 months
same,median PFS,cancer patients [1]; [6],2.3 months
same,response (positive),cancer patients [1]; [6],41%
same,median OS,cancer patients [1]; VEGFR2 rs2071559 G/G (N=39),4.7 months
same,median PFS,cancer patients [1]; VEGFR2 rs2071559 G/G (N=39),1.8 months
same,response (positive),cancer patients [1]; VEGFR2 rs2071559 G/G (N=39),18%
same,patients non-responsive (tumor response),cancer patients [1]; VEGFR2 rs2071559 G/G carriers,31
same,patients responsive (tumor response),cancer patients [1]; VEGFR2 rs2071559 G/G carriers,7
same,HR for PFS,"cancer patients [1]; VEGFR2 rs2071559 G/G vs A/variant carriers, multivariate, p=0.0197",1.59
same,HR for PFS,"cancer patients [1]; VEGFR2 rs2071559 G/G vs A/variant carriers, univariate, p=0.0250",1.49
same,HR for OS,"cancer patients [1]; VEGFR2 rs2071559 G/G vs A/variant carriers, univariate, p=0.0452",1.45
same,median PFS,cancer patients [1]; high-risk group: VEGFR2 rs2071559 G/G + NOTCH1 rs6563 A/A (N=15) together with G/G + NOTCH1 G/Variant + ANG2 rs2442599 A/A (N=11),1.7 months
same,median PFS,cancer patients [1]; low-risk group: VEGFR2 rs2071559 A/variant (N=111) together with G/G + NOTCH1 rs6563 G/Variant + ANG2 rs2442599 G/Variant (N=13),2.3 months
same,HR for PFS,"cancer patients [1]; tree model high-risk vs low-risk group (VEGFR2/NOTCH1/ANG2), multivariate, log-rank P<0.001",0.41
same,grade 3 HFSR,cancer patients [2]; Caucasian (Italian) patients receiving regorafenib,16%
same,grade 3 HFSR,cancer patients [2]; Japanese patients receiving regorafenib,33.8%
